The values that follow come from patent US20100227307A1, “ERGOTHIONEINE AND/OR ITS DERIVATIVES AS A CELL PRESERVATIVE” (priority 2007, published 2010).

The test system of one experiment is mouse liver. To be noted: cited from earlier work.
Experiment [1] has as its system Stallion named IKE's semen (sperm cells). The experiment can be described thus: Post-thaw motility of frozen stallion semen in five extenders (Sperm Vision analysis). In kind it is cell-based. To be noted: ergothioneine added to traditional semen extender compositions. Here is the method: The resulting sperm pellet was then split 5 ways and resuspended with the five different extenders tested. DMSO and EQUIPRO® cryoguards were frozen right away. […] Semen was frozen using the ice cube freezer. Semen straws were thawed at 37° C. for 1 minute. Semen was diluted at one to ten in EQUIPRO® concentrate to analyze using sperm vision. All five extenders were measured for motility (total motility and forward progressive motility, FPM) using Sperm Vision® software, a high-resolution, rapid scan digital camera on a plain glass slide. Measurements were taken at 0 min post thaw, 30 min and 60 min post thaw.

In a further experiment the test system is liver tissue of rats. To be noted: exogenous L-ergothioneine; cited from earlier work.

For the compound `C[N+](C)(C)[C@@H](Cc1c[nH]c(=S)[nH]1)C(=O)[O-]` [ergothioneine, L-ergothioneine], in the experiment with mouse liver, the LPO formation result is “inhibited LPO formation” and the “decomposition of existing LPO” value is given as “enhanced the decomposition of existing LPO”. Moreover, in experiment [1], the sperm cell survival entry is “significant improvement” and the surviving cell motility entry was “significant improvement”. Moreover, in the experiment with liver tissue of rats, the “lipid peroxidation by toxic compounds” value is given as “prevent lipid peroxidation”.
